Measured values as given in article PMC2797226 (The Journal of Biological Chemistry, 2009).

Experiments:
Kar2p = Kar2p (Saccharomyces cerevisiae, UniProt P16474); test: proteinase K protection, SDS-PAGE; format: binding; conditions: 2 mM ADP; 5 mM MgCl2; pH 7.4; room temperature
Lhs1p = target: T1, Lhs1p (Saccharomyces cerevisiae, UniProt P36016); test: biochemical
T1 sequence (P36016 21-881): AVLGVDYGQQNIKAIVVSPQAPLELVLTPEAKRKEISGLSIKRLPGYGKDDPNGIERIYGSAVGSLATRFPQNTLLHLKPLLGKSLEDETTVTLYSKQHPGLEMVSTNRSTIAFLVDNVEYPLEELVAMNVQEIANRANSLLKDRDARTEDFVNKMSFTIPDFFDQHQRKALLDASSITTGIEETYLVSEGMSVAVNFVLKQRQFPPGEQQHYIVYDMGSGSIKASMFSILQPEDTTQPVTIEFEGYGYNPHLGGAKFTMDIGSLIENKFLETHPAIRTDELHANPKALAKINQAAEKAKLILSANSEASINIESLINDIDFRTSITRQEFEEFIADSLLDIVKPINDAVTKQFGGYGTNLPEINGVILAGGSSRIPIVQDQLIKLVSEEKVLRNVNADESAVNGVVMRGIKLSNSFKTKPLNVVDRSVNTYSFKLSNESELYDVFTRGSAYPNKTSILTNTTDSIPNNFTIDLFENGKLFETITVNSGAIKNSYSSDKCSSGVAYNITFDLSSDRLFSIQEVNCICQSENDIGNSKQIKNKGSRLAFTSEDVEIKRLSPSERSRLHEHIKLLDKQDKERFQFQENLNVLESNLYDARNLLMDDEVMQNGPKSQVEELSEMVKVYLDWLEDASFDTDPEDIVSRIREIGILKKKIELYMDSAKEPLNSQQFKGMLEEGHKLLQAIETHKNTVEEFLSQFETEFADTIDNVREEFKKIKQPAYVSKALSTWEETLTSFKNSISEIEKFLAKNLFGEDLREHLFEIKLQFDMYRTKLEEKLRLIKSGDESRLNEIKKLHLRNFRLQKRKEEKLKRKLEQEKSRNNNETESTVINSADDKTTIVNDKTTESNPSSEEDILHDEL

Kar2p, sequence (P16474 43-682): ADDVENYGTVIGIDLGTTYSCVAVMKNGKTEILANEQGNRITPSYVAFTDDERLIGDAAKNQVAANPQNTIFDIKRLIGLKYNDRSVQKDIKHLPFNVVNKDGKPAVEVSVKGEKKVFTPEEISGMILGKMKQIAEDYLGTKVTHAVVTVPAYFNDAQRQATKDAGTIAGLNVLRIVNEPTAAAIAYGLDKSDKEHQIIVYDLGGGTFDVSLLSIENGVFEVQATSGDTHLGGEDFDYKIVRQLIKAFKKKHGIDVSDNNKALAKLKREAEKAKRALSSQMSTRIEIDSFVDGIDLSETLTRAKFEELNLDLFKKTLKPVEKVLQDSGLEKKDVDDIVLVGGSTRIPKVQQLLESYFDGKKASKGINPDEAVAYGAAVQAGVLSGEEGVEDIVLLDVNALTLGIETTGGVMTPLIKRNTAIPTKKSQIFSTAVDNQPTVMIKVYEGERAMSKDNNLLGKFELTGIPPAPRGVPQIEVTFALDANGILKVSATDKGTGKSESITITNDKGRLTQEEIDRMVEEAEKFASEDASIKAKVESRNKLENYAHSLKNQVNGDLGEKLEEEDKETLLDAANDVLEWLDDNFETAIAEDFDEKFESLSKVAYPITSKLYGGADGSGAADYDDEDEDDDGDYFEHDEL

Row | Kd (Lhs1p) | Structure (SMILES) | proteinase K protection, SDS-PAGE (Kar2p)
1 | – | Nc1ncnc2c1ncn2[C@@H]1O[C@H](COP(=O)(O)OP(=O)(O)O)[C@@H](O)[C@H]1O [ADP] | ADP binding protects a ∼44-kDa NBD fragment
2 | 13.6 ± 0.5 µM | Nc1ncnc2c1ncn2[C@@H]1O[C@H](COP(=O)(O)OP(=O)(O)OP(=O)(O)O)[C@@H](O)[C@H]1O [ATP] | –
